Measured values: patent publication US6410054B1, “Immediate release eplerenone compositions” (G. D. Searle & Co., priority 1998, dated 2002)

Columns and labels:
[1] = Single dose study: plasma pharmacokinetics of eplerenone, open lactone ring form, spironolactone
Experimental: The pharmacokinetics, safety and antialdosterone activity of single 10, 50, 100, 300 and 1000 mg oral doses of eplerenone were evaluated in a single-center, randomized, double-blind, placebo-controlled study.
The study employed seven parallel dose groups of eight healthy male humans.
The eplerenone capsules administered corresponded to the capsules (or combinations of the capsules) disclosed in Examples 4, 5, 7 and 8 above. The placebo was a conventional capsule containing lactose. […] The fludrocortisone used in the study consisted of commercially available fludrocortisone tablets (Florinef®, Squibb BV).
(§1) The subjects, who underwent a ten hour food fast prior to administration of the dose, received a single oral dose of one of the study medications together with about 180 mL of water at 0800 hours. […] Each dose of fludrocortisone was administered with 150 mL of water except for the 1.0 mg dose which was administered with 200 mL of water.
(§2) The plasma samples collected from subjects dosed with eplerenone were assayed for concentrations of eplerenone and the open lactone ring form of eplerenone. […] A subset of plasma samples was also assayed for testosterone levels. The urine collected was analyzed to determine concentrations and amounts of eplerenone and the open lactone ring form of eplerenone, the amount of sodium and potassium excreted, and the urinary log10 (sodium/potassium) ratio.

aldosterone receptors [2] = target: T1, aldosterone receptors (Homo sapiens, UniProt P08235); experiment: Multiple dose study: antialdosterone activity, urinary log10 (sodium/potassium); format: in vivo, humans; conditions: multiple dose administration
T1 construct: endogenous in cells; host or cells: healthy male human subjects (in vivo)
T1 sequence (P08235 1-984): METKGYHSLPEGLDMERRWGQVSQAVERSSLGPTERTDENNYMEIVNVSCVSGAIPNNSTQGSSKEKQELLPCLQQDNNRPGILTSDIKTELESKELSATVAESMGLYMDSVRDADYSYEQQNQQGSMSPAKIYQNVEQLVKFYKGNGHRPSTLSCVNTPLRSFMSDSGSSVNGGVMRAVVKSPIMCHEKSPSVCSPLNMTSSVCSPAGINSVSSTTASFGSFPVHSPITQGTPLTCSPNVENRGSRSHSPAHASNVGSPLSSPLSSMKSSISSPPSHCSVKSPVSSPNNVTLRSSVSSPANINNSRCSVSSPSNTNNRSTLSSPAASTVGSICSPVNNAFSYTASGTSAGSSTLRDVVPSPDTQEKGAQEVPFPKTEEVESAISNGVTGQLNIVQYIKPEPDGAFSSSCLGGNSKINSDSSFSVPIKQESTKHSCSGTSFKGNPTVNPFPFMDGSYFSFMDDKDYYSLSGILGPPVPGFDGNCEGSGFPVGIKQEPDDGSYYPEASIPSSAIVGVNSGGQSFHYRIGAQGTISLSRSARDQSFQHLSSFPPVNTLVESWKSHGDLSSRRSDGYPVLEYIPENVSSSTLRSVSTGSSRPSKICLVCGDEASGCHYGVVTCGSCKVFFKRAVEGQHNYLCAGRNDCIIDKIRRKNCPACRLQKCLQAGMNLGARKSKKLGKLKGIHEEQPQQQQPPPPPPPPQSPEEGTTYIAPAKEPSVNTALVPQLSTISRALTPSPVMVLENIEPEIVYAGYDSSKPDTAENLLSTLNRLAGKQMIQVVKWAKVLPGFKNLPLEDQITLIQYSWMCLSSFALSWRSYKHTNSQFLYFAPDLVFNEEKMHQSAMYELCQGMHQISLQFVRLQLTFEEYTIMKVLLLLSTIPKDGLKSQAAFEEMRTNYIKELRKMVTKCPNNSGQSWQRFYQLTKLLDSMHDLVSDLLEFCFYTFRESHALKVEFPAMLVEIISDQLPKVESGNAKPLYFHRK
Experimental: Multiple oral dose tolerability and the pharmacokinetics of several dosages of eplerenone were evaluated in a double-blind, randomized, placebo-controlled, rising oral dose, sequential panel study of 40 healthy male subjects (five groups of eight subjects). The study medication was administered in three sequential dose panels, with each panel including eplerenone, spironolactone and placebo. […] The 100 mg and 200 mg dose capsules corresponded to those described in Examples 7 and 8, respectively. […] Antialdosterone activity was determined following a fludrocortisone challenge on Days 12-13.

renin and aldosterone = experiment: Treatment of hypertension study: plasma renin and serum aldosterone; format: in vivo, humans
Experimental: The safety and efficacy of a range of doses of eplerenone in the treatment of hypertension relative to placebo were evaluated in a multi-center, randomized, double-blind, placebo-lead-in, parallel group study. […] Four hundred and seventeen patients were randomized to one of eight treatments: (i) placebo BID; […] (iv) eplerenone 400 mg QD; (v) eplerenone 25 mg BID; […] The primary efficacy variable was the change in cuff diastolic blood pressure (ADBP; sitting) measured at trough plasma levels after eight weeks of double blind treatment. The secondary variables measured were the change in trough cuff systolic blood pressure (ΔSBP; sitting), change in 24 hour mean diastolic blood pressure (ΔDBP), and change in 24 hour mean systolic blood pressure (ΔSBP). […] Changes in plasma renin and serum aldosterone after eight weeks of dosing were also analyzed as secondary measures of efficacy.

blood pressure = experiment: Treatment of hypertension study: blood pressure; format: in vivo, humans; conditions: 50 mg BID; eight weeks
Experimental: The safety and efficacy of a range of doses of eplerenone in the treatment of hypertension relative to placebo were evaluated in a multi-center, randomized, double-blind, placebo-lead-in, parallel group study. […] The primary efficacy variable was the change in cuff diastolic blood pressure (ADBP; sitting) measured at trough plasma levels after eight weeks of double blind treatment. The secondary variables measured were the change in trough cuff systolic blood pressure (ΔSBP; sitting), change in 24 hour mean diastolic blood pressure (ΔDBP), and change in 24 hour mean systolic blood pressure (ΔSBP). The primary and secondary efficacy variables were analyzed to compare BID versus QD dosing regimens for each eplerenone dose group, and both eplerenone and spironolactone versus placebo. Changes in plasma renin and serum aldosterone after eight weeks of dosing were also analyzed as secondary measures of efficacy.
The specific pharmaceutical compositions of each eplerenone capsule are reported in Examples 5, 6, 7 and 8. The placebo was a conventional capsule containing lactose.

aldosterone receptors [3] = target: T1, aldosterone receptors; experiment: Single dose study: antialdosterone activity, urinary sodium and potassium after fludrocortisone; format: in vivo, humans; conditions: 50 mg dose
Experimental: Antialdosterone activity was determined based on urine levels of sodium and potassium following repeated administration of fludrocortisone. Safety was determined on the basis of laboratory tests, vital signs, and the occurrence and types of adverse events.
as §1, §2

SMILES: CC(=O)S[C@@H]1CC2=CC(=O)CC[C@]2(C)[C@H]2CC[C@@]3(C)[C@@H](CC[C@@]34CCC(=O)O4)[C@H]12 [spironolactone, Spironolactone, reference compound]
- Plasma Concentration Of Spironolactone ([1]; 50 mg single oral dose, -0.25 h (predose)): 0 ng/mL
- concentration at 0.5 h ([1]; male, human, plasma, po, 50 mg): 10.5 ng/mL
- concentration at 1 h ([1]; male, human, plasma, po, 50 mg): 23.6 ng/mL
- concentration at 2 h ([1]; male, human, plasma, po, 50 mg): 14.4 ng/mL
- concentration at 3 h ([1]; male, human, plasma, po, 50 mg): 14.3 ng/mL
- concentration at 4 h ([1]; male, human, plasma, po, 50 mg): 4.8 ng/mL
- concentration at 6 h ([1]; male, human, plasma, po, 50 mg): 0 ng/mL
- concentration at 8 h ([1]; male, human, plasma, po, 50 mg): 0 ng/mL
- concentration at 12 h ([1]; male, human, plasma, po, 50 mg): 0 ng/mL
- concentration at 16 h ([1]; male, human, plasma, po, 50 mg): 0 ng/mL
- concentration at 24 h ([1]; male, human, plasma, po, 50 mg): 0 ng/mL
- concentration at 28 h ([1]; male, human, plasma, po, 50 mg): 0 ng/mL
- concentration at 32 h ([1]; male, human, plasma, po, 50 mg): 0 ng/mL
- concentration at 48 h ([1]; male, human, plasma, po, 50 mg): 0 ng/mL
- concentration at 72 h ([1]; male, human, plasma, po, 50 mg): 0 ng/mL
- concentration at 96 h ([1]; male, human, plasma, po, 50 mg): 0 ng/mL
- urinary log10 (sodium/potassium) values (aldosterone receptors [2]): no sustained increase
- Plasma Renin Active Mean Change From Baseline (renin and aldosterone; 50 mg BID): 13.3 mU/L
- Serum Aldosterone Mean Change From Baseline (renin and aldosterone; 50 mg BID): 19.2 ng/dL
- aldosterone compared to placebo (renin and aldosterone; eight weeks of dosing): increases
- total and active renin levels (renin and aldosterone; eight weeks of dosing): increases
- 24 hour mean ΔDBP (blood pressure): −8.9 mmHg
- 24 hour mean ΔSBP (blood pressure): −15.7 mmHg
- Primary Efficacy Variable: ΔDBP at trough (sitting) (blood pressure): −9.5 mmHg
- ΔSBP at trough (sitting) (blood pressure): −17.6 mmHg
- Urinary Potassium Excretion (aldosterone receptors [3]; 0 to 2 hours): 7.5 mmol
- Urinary Sodium Excretion (aldosterone receptors [3]; 0 to 2 hours): 4.1 mmol
- Urinary Potassium Excretion (aldosterone receptors [3]; 2 to 4 hours): 11.8 mmol
- Urinary Sodium Excretion (aldosterone receptors [3]; 2 to 4 hours): 8.5 mmol
- Urinary Potassium Excretion (aldosterone receptors [3]; 4 to 6 hours): 10.2 mmol
- Urinary Sodium Excretion (aldosterone receptors [3]; 4 to 6 hours): 9.4 mmol
- Urinary Potassium Excretion (aldosterone receptors [3]; 6 to 8 hours): 13.3 mmol
- Urinary Sodium Excretion (aldosterone receptors [3]; 6 to 8 hours): 14.8 mmol
- Urinary Potassium Excretion (aldosterone receptors [3]; 8 to 10 hours): 17.9 mmol
- Urinary Sodium Excretion (aldosterone receptors [3]; 8 to 10 hours): 13.4 mmol
- Urinary Potassium Excretion (aldosterone receptors [3]; 10 to 12 hours): 12.5 mmol
- Urinary Sodium Excretion (aldosterone receptors [3]; 10 to 12 hours): 8.4 mmol
- Urinary Potassium Excretion (aldosterone receptors [3]; 12 to 14 hours): 20.6 mmol
- Urinary Sodium Excretion (aldosterone receptors [3]; 12 to 14 hours): 11.5 mmol
- Urinary Potassium Excretion (aldosterone receptors [3]; 14 to 16 hours): 11.4 mmol
- Urinary Sodium Excretion (aldosterone receptors [3]; 14 to 16 hours): 5.9 mmol
- Urinary Potassium Excretion (aldosterone receptors [3]; 16 to 24 hours): 27.9 mmol
- Urinary Sodium Excretion (aldosterone receptors [3]; 16 to 24 hours): 11.8 mmol
- Urinary Potassium Excretion (aldosterone receptors [3]; −9 to 0 hours): 26.9 mmol
- Urinary Sodium Excretion (aldosterone receptors [3]; −9 to 0 hours): 29.1 mmol
